Holding throughout (test): DTP human tumour cell line panel, 48 h
Test [1] has as its system BT-549 breast.
Test [2] has as its system NCI-H522 lung.
The test system of test [3] is SK-OV-3 ovarian.
In test [4] the test system is HOP-92 NSCLC.
Test [5] concerns SF-295 CNS.
The subject of test [6] is RXF 393 renal.
Test [7] has as its system HT29 colon.
The test system of test [8] is DU-145 prostate.
Test [9] relates to HS 578T breast.
For test [10], the system named is HCC-2998 colon.

Several values for one entry are separate records, joined by “and”; a condition that tells them apart may be missing. Equal values may be shown once.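 Five compound concentrations were applied to cells in 96-well plates for 48 hours; endpoints were derived by simple linear interpolation of the resulting dose-response curve. The concentration for 50% growth inhibition is given as GI50. TGI: concentration producing complete growth inhibition.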 Bounds are passed on as bounds.

The term TGI denotes the concentration at which net growth stops. Consider `O=C(/C=C/c1ccc([N+](=O)[O-])cc1)N1CCN(CCOC(c2ccc(F)cc2)c2ccc(F)cc2)CC1`, for which the concentration for total growth inhibition (TGI) in [1] was greater than 100 µM; in test [2], greater than 100 µM; in [3], greater than 100 µM; in test [4] it was 83.8 µM; in [5], greater than 100 µM; in test [6], greater than 100 µM. Besides, the total growth inhibition concentration (TGI) in [7], in test [8], in test [9] and in test [10] was greater than 100 µM throughout.
Consider `O=C1Nc2cccc(Cl)c2/C1=C\c1cccnc1`, for which the total growth inhibition concentration (TGI) came to 24.4 µM in test [1]; 21.6 µM in test [2]; 15.3 µM in test [3]; 68 µM in test [4]; 34.6 µM in test [5]; 7.48 µM in test [6]. Moreover, the concentration for total growth inhibition (TGI) is greater than 100 µM in [7], 35.9 µM in test [8], 91.9 µM in test [9] and 7.86 µM in test [10].
With `Cc1csc2nc(-c3cccc([N+](=O)[O-])c3)c(/C=N/N=C(N)N)n12`, the concentration for total growth inhibition (TGI) in test [1] was determined as 2.49 µM; in test [2], 3.26 µM; in test [3], 3.33 µM; in test [4], 1.37 µM; in [5], 3.12 µM; in [7] it was 3.27 µM. In addition, the TGI in [8] came to 4.28 µM; in test [9] it was 3.45 µM; in test [10], 0.861 µM.
For `COC(=O)c1c(O)ccc2c1c1c(n2CCc2ccc(OC)c(OC)c2)C(=O)c2ccccc2C1=O`, the TGI in [1] turned out to be 27.8 µM; in test [2], 14 µM; in test [3], 38.6 µM; in test [4] it was 43.6 µM; in test [5], 38 µM; in test [6], 39.5 µM. Moreover, the concentration for total growth inhibition (TGI) in test [7] stood at 10.5 µM; in test [8], 29.5 µM; in test [9], 37.2 µM; in [10], 15.7 µM.
`Brc1ccc(-c2[nH]c3ccccc3c2/C=N\Nc2ccc(-c3nc4ccccc4[nH]3)cc2)cc1`: the concentration for total growth inhibition (TGI) is greater than 100 µM in [1]; less than 0.01 µM in test [2]; greater than 100 µM in [3]; greater than 100 µM in [5]; greater than 43.6 µM in [6]; greater than 31.8 µM in test [8]. For the same compound, the total growth inhibition concentration (TGI) in test [9] and in test [10] was less than 0.01 µM throughout.
As for `O=C1OC(c2ccc(O)cc2)(c2ccc(O)cc2)c2ccc(Cl)c3cccc1c23` (tested in a mixture with another compound), the TGI in test [1] is 31.7 µM; in test [3] it was greater than 75 µM; in test [4], greater than 75 µM; in [5] it was 25.2 µM; in test [6], 27.4 µM; in test [7], 23.9 µM. For the same compound, the TGI was greater than 75 µM in [8] and 40.6 µM in test [9].
In general, GI50 refers to the concentration that inhibits growth by half. For `Cc1ncc(C(=O)Nc2ccc(CN3CCN(C)CC3)c(C(F)(F)F)c2)cc1C#Cc1cnc(N)c2ccc(C#N)cc12`, the GI50 in [1] is 0.631 µM; in test [2], 0.0788 µM; in test [3], 0.02 µM; in test [4] it was 0.0165 µM; in test [5] it was 0.0545 µM; in test [8], 0.0157 µM. In [10], the GI50 is 2.29 µM. The TGI in test [1] was greater than 100 µM; in test [2] it was greater than 100 µM; in test [3], greater than 100 µM; in test [4], 0.0783 µM; in [5], 33.1 µM; in test [8], 2.34 µM. The compound further showed a total growth inhibition concentration (TGI) in [10] of 24.7 µM.
For `COc1cc(/C=N/NC(=O)c2c(Cl)c(Cl)c(Cl)c(Cl)c2-c2nc3ccc(C(=O)c4ccccc4)cc3[nH]2)ccc1O`, the TGI in test [1], in test [2], in [3], in [4], in [5] and in test [6] was greater than 100 µM in each case. Besides, the TGI in test [7], in test [8] and in [9] was greater than 100 µM throughout.
For the compound `O=C(O)c1cc2ccccc2c(N=Nc2ccc(S(=O)(=O)Nc3ccccn3)cc2)c1O`, the TGI in test [1], in test [2], in test [3], in test [4], in [5] and in test [6] was greater than 100 µM throughout. Also, the TGI in test [7], in test [8], in [9] and in test [10] was greater than 100 µM each time.
Turning to `O=S(=O)(c1ccccc1)C1CC(c2nc3ccccc3[nH]2)=NO1` (stereo unspecified), the concentration for total growth inhibition (TGI) in [1], in test [2], in test [3], in test [4], in test [5] and in [6] was greater than 100 µM in each case. Moreover, the total growth inhibition concentration (TGI) in [7], in [8], in [9] and in [10] was greater than 100 µM in each case.
Turning to `CCCCCCCCCCCCc1ccc(S(=O)(=O)O)cc1.[Cu+2]`, the concentration for total growth inhibition (TGI) in test [3] is 22.8 µM; in [4], greater than 100 µM; in [5], greater than 100 µM; in [6] it was greater than 100 µM; in test [7], greater than 100 µM; in test [8], greater than 100 µM. In addition, the concentration for total growth inhibition (TGI) in test [9] and in test [10] was greater than 100 µM throughout.
`CC[C@@]1(O)CC(OC2CC(N3CCOCC3)C(O)C(C)O2)c2c(O)c3c(c(O)c2[C@H]1O)C(=O)c1cccc(O)c1C3=O` (stereo partly specified): the concentration for total growth inhibition (TGI) in [1] is 0.349 µM; in test [2], 0.906 µM and 0.407 µM; in test [3], 1.07 µM and 1.67 µM; in [4] it was 0.383 µM and 0.871 µM; in test [5] it was 0.526 µM and 0.357 µM; in test [6], 0.715 µM and 1.15 µM. For the same compound, the TGI was 3.23 µM and 2.33 µM in test [7]; 0.852 µM in test [8]; 1.61 µM in test [9]; 0.904 µM and 0.916 µM in test [10]. In addition, the 50% growth inhibitory concentration (GI50) in [2] was 0.055 µM; in test [3] it was 0.0963 µM; in [4], 0.0725 µM; in test [5], 0.0292 µM; in test [7], 0.0228 µM; in test [10] it was 0.13 µM.
For `N#CC1(CCCI)CCCC1`, the TGI in [2] was 28.7 µM; in test [3] it was greater than 100 µM; in test [4] it was 35 µM; in test [5] it was 94.7 µM; in test [6] it was 23 µM; in test [7], 80.6 µM. The same compound gave a total growth inhibition concentration (TGI) in [10] greater than 100 µM.
Consider `C[C@]12CC[C@H]3[C@@H](CC=C4C[C@@H](O)CC[C@@]43C)[C@@H]1C/C(=C\c1ccncc1)[C@@H]2O`, for which the TGI in test [1] was found to be 19.9 µM; in [2] it was 57.7 µM; in test [3], 79.6 µM; in test [4], 27.6 µM; in test [5] it was 35.5 µM; in test [6], 38 µM. For the same compound, the TGI in test [7] is greater than 100 µM; in [8], 49.6 µM; in test [9] it was greater than 100 µM; in test [10], greater than 100 µM.
As to `CC(=O)OC(C(=O)O)C(OC(C)=O)C(OC(C)=O)C(OC(C)=O)C(=O)O` (stereo unspecified), the TGI in [1], in [2], in [3], in [4], in [5] and in test [7] was greater than 100 µM in each case. Moreover, the TGI in [9] is greater than 100 µM.
As to `N#Cc1c(-c2ccc([N+](=O)[O-])cc2)c2c([nH]c1=O)-c1ccccc1CCC2`, the TGI in [1] was 85.9 µM; in test [2], greater than 100 µM; in [3], greater than 100 µM; in [4], 48.4 µM; in [5] it was greater than 100 µM; in test [6] it was 73.8 µM. Further, the TGI in [7] was greater than 100 µM; in test [8], greater than 100 µM; in [9], greater than 100 µM; in test [10] it was 71.1 µM.
For the compound `NC1CCN(c2nc3ccccc3c3c2CCCC3)CC1`, the TGI in test [1] was found to be 25.9 µM; in test [2] it was 19.3 µM; in test [3] it was 27.1 µM; in test [4] it was 17.2 µM; in test [5], 26.4 µM; in test [6], 11.2 µM. For the same compound, the TGI is 5.27 µM in test [7], 24.3 µM in test [8], greater than 100 µM in [9] and 3.2 µM in test [10].
Regarding `Cc1c(-c2ccccc2)c(C#N)c2nnn(-c3ccc(Cl)cc3)c(=O)n12`, the TGI in test [1] is greater than 100 µM; in test [2], 26.7 µM; in test [3], greater than 100 µM; in test [4] it was greater than 100 µM; in test [5], greater than 100 µM; in test [6] it was greater than 100 µM. The TGI in [7], in [8], in test [9] and in [10] was greater than 100 µM each time.
For `CC(C)CNC1=NCC(C)S1` (stereo unspecified), the TGI in test [1], in test [2], in [3], in test [4], in test [5] and in test [6] was greater than 100 µM each time. Further, the TGI in test [7], in [8], in test [9] and in test [10] was greater than 100 µM throughout.
Take `CC(C)CCN(CCC(C)C)CC(=O)Nc1ccc(S(=O)(=O)c2ccc(NC(=O)CN(CCC(C)C)CCC(C)C)cc2)cc1`: the GI50 was 1.16 µM in [1]; 1.53 µM in test [2]; 28 µM in [3]; 1.68 µM in test [4]; 3.86 µM in [5]; 1.79 µM in test [6]. Moreover, the GI50 was 1.58 µM in test [7], 2.29 µM in test [8], 5.37 µM in test [9] and 3.2 µM in test [10]. Further, the total growth inhibition concentration (TGI) in test [1] was 3.36 µM; in [2], 3.2 µM; in [3], 88 µM; in test [4], 3.64 µM; in test [5] it was 16.5 µM; in test [6], 5.87 µM. Moreover, the concentration for total growth inhibition (TGI) in test [7] came out at 3.29 µM; in test [8], 6.16 µM; in [9] it was 70.3 µM; in [10], 9.71 µM.
As for `C=C(CN(C)C)C(=O)c1ccccc1OC`, the TGI in test [1] is 31.9 µM; in test [2] it was 6.01 µM; in test [3], greater than 66.1 µM; in [4], 32.1 µM; in test [5], greater than 71.9 µM; in test [6] it was 23.7 µM. Moreover, the concentration for total growth inhibition (TGI) in test [7] is 46 µM; in [8], greater than 64 µM; in test [9] it was 56.8 µM; in test [10] it was 51.1 µM.

For the origin of these results see PubChem BioAssay (NCI).
